{
  "source": "patent US20240369544A1",
  "about": "“MULTIVALENT GLYCAN SCAFFOLDS AND METHODS OF USE THEREOF” (NovAb, Inc., priority 2021, published 2024)",
  "key": {"[1]": {"target": "T1, Peanut agglutinin lectin (PNA) (Arachis hypogaea, UniProt P02872)", "T1 sequence (P02872 whole entry, looked up)": "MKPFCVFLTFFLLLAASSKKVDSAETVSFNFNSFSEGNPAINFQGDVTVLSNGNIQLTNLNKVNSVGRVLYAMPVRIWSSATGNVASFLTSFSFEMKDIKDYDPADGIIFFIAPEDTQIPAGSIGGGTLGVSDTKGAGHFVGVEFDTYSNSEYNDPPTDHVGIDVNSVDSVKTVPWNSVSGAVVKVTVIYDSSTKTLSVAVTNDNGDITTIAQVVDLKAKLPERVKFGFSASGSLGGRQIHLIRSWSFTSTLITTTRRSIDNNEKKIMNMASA", "test": "Lectin assay of dendrimers on magnetic beads, PNA", "assay_type": "binding", "details": "dendrimers coupled to streptavidin magnetic beads; lectin at 2 μg/mL pre-complexed with Avidin-HRP", "description": "(§1) The Avidin-HRP was purchased from SouthemBiotech. […] 3 μL of dendrimer beads were used per assay."}, "[2]": {"test_system": "Vicia Villosa lectin (VVL)", "test": "Lectin assay of dendrimers on magnetic beads, VVL", "assay_type": "binding", "details": "dendrimers coupled to streptavidin magnetic beads; lectin at 2 μg/mL pre-complexed with Avidin-HRP", "description": "as §1"}, "anti-H3 antibody": {"target": "anti-H3 antibody", "test": "Dissociation constant of monomer H3:anti-H3 antibody interaction", "assay_type": "binding"}, "[3]": {"test_system": "O13 YSD cells (yeast cells expressing the lamprey O13 VLRB anti-H3 antibody on their surface)", "assay_type": "binding", "description": "The O13 YSD cells were then washed 3 times with ice-cold TSM-BSA, then resuspended in 250 μL TMS-BSA to which 1 μL of PI was added to stain live/dead cells. 125 μL of each sample were used for flow cytometry measurements."}, "[4]": {"target": "T2, Peanut agglutinin lectin (PNA), biotinylated, Vector Laboratories (Peanut, UniProt P02872 24-259, limits assumed, biotinylated (sites not given))", "T2 construct": "Lectin, described as specific for galactose as found in T-antigen; It was pre-complexed with Avidin-HRP for the assay", "T2 sequence (looked up)": "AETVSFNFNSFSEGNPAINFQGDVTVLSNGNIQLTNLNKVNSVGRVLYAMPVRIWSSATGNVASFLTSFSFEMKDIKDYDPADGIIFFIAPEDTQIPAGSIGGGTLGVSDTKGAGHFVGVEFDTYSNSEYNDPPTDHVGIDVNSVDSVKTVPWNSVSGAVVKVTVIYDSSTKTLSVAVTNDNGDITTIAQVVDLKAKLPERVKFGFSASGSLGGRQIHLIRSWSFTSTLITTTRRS", "test": "lectin assay: dendrimer on streptavidin magnetic beads, biotinylated lectin pre-complexed with Avidin-HRP, TMB read-out"}},
  "note": "Where no end group is shown, it is not given here. The star is where a group is joined. αGalNAc = CC(=O)N[C@@H]1[C@@H](O)[C@@H](O)[C@@H](CO)O[C@@H]1*; GalNAcα = O-linked α-N-acetylgalactosamine",
  "data": [
    {"molecule": "GP100120-dendrimers: Synthetic fibroin glycopeptide GP100120 (GAT*ES*RGAGAGA-NH2, GalNAc on Ser and Thr, SEQ ID NO:5) conjugated to 8-arm-PEG-NHS compound (GAT(αGalNAc)ES(αGalNAc)RGAGAGA-NH2; also: conjugated to 8-arm-PEG-NHS (dendrimer), site not given here)", "values": [
      {"measurement": "reactivity to PNA lectin", "setting": "[1]", "result": "negative"},
      {"measurement": "reactivity to VVL lectin", "setting": "[2]", "result": "positive"}
    ]},
    {"molecule": "CC(=O)N[C@H]1C(O)O[C@H](CO)[C@@H](O[C@@H]2O[C@H](CO)[C@H](O)[C@H](O)[C@H]2O[C@@H]2O[C@@H](C)[C@@H](O)[C@@H](O)[C@@H]2O)[C@@H]1O", "note": "(stereo partly drawn) [monomer H3, Blood group H type 2 trisaccharide]", "values": [
      {"measurement": "Kd", "setting": "anti-H3 antibody", "result": 2000, "unit": "nM"},
      {"measurement": "koff of monomer H3:anti-H3 antibody complex", "setting": "anti-H3 antibody; from Kd=koff/kon with kon 10^6 M^−1 s^−1", "result": 2, "unit": "s⁻¹"},
      {"measurement": "binding by O13 YSD cells (flow cytometry)", "setting": "[3]", "result": "not detected"}
    ]},
    {"molecule": "GAT(GalNAcα)ESRGAGAGA-NH2 (not fully specified (residue 5); printed as GAT*ES*RGAGAGA-NH2; also: coupled through a primary amine to NHS arm of 8-arm PEG (7 NHS arms, 1 biotin arm), multivalent, copy number not given here, The dendrimer was captured on streptavidin magnetic beads by its biotin; also called GP100121 glycopeptide dendrimer; GP100121 dendrimer)", "values": [
      {"measurement": "binding result", "setting": "[4]", "result": "no binding (tested: 2 µg/mL)"}
    ]}
  ]
}
